From patent US20120065228A1, “COMPOSITIONS AND METHODS FOR TREATING, CONTROLLING, REDUCING, OR AMELIORATING OCULAR INFLAMMATORY WITH LOWER RISK OF INCREASED INTRAOCULAR PRESSURE” (priority 2007, published 2012)
Several values for one entry are separate records, joined by “and”; a condition that tells them apart may be missing. Equal entries are not always repeated.

Key:
monkey TM cells = experiment: Cell metabolic activity (resazurin reduction) assay in monkey TM cells; assay type: cell-based, rhesus monkeys (Macaca mulatta); conditions: at the conclusion of the treatment periods
Experimental: A modification of previously described methods^40 was employed to evaluate cell metabolic activity, an index of cell viability. After collection of CM samples, cells were briefly rinsed in modified Hanks balanced salt solution containing Ca^++ and Mg^++ (“MHBSS”), and then 0.0025% (w/v) resazurin (Sigma) in MHBSS was added to sample wells. Plates were incubated (37° C., 5% CO2, 95% humidity) for 90 minutes, after which fluorescence (Excitation 560 nm, Emission 590 nm) was read (Victor 3V Multilabel Counter, Wallac, Turku, Finland). As a positive control for decreased cellular metabolic reduction of resazurin, in each plate an additional well of vehicle control-treated cells was preincubated with 0.06% hydrogen peroxide (Fisher, Atlanta, Ga.) in MHBSS.

myocilin mRNA = experiment: Myocilin mRNA expression in monkey TM cells (qRT-PCR); assay type: cell-based, rhesus monkeys (Macaca mulatta); conditions: for EC50: Macaca mulatta, cultured monkey TM cells, weighted average, two dose-response studies each using two TM cell strains, read-out: EC50 ± SE, expression of myocilin mRNA
Experimental: For each study, up to nine TM cell strains, each derived from an individual monkey, were tested separately. Cells were thawed and seeded into 12- or 48-well clusters (Falcon, BD Biosciences; 150,000 and 30,000 cells/well, respectively) in proliferation medium. When cells were 75% to 90% confluent proliferation medium was replaced by a 5:4 mixture of HESFM and Dulbecco's MEM, respectively, supplemented with 10% FBS, with added taurine, ascorbic acid phosphate, glutathione, and antibiotic as for proliferation medium (above), and with 2.72 g/L glucose and 1.72 g/L fructose. At confluence, the medium was changed to Dulbecco's MEM, containing 10% FBS^40, ascorbic acid phosphate, antibiotic, 2.72 g/L glucose and 1.72 g/L fructose. Cells were maintained as stable, confluent monolayers in this latter medium for 4 to 7 days before experimental treatments commenced.
After quantification of purified total RNA (Quant-iT RNA Assay kit, Molecular Probes, Eugene, Oreg.), equivalent amounts of this RNA were apportioned to generate first-strand cDNAs for each treatment sample, using random primers, (Affinity Script, Stratagene, La Jolla, Calif.). Oligonucleotide myocilin primers, designed based on the cynomolgus MYOC gene, and fluorescent Taqman probe (Applied Biosystems, Foster City, Calif.) were used for PCR amplification. Equal amounts of total RNA-equivalent mass (approximate range […]) reactant cDNA were added to the PCR Master Mix (Stratagene) and myocilin primers/Taqman probe. Amplification was performed in a thermocycler (Mx3005P, Stratagene), with an initial denaturation step at 95° C. for 10 min, followed by 40 cycles of 95° C. for 15 sec and 60° C. for 1 min for extension. Every run included standard controls (i.e., either without reverse transcriptase or lacking template). Relative quantities of myocilin mRNA abundance were determined using differences in threshold cycles (“Ct”) between vehicle control and drug treatments. Each sample was analyzed in triplicate wells, and the corresponding values averaged for further quantitative analysis. Myocilin mRNA abundance, expressed in proportion to vehicle control-treated samples, was calculated using the Mx3005P software.
Data underwent Box-Cox transformations for one- or two-way analysis of variance (ANOVA), followed by the Tukey-Kramer test, using JMP software (SAS, Cary, N.C.). The specific transformations used for analyses are mentioned in the figure legends. For each set of triplicate samples from the individual monkey TM cell strains tested, Western blot densitometry values for myocilin protein detected in CM (as geometric means), and relative abundance of myocilin mRNA (as geometric means), were plotted as a function of drug concentrations. P-values less than 0.05 were considered statistically significant. […]

[1] = test system: PGE2 in the aqueous humor; experiment: Prostaglandin E2 (PGE2) measurement in aqueous humor, rabbit paracentesis model; assay type: in vivo; conditions: for PGE2 in aqueous humor, Mean / PGE2 in aqueous humor: second paracentesis; for PGE2 in aqueous humor: individual eyes; for PGE2 in aqueous humor, statistical significance versus CTR: p<0.05
Experimental: Each rabbit was placed in a restraint device and tagged with the alphanumeric code. The formulations were instilled (50 μl) into the conjunctival sac of both eyes 180, 120, 90 and 30 min before the first paracentesis; then 15, 30, 90 min after the first paracentesis. To perform the first paracentesis the animals were anaesthetized by intravenous injection of 5 mg/kg Zoletil® (Virbac; 2.5 mg/kg tiletamine HCl and 2.5 mg/kg zolazepam HCl) and one drop of local anesthetic (Novesina®, Novartis) was administered to the eye. Anterior chamber paracentesis was performed with a 26 G needle attached to a tuberculin syringe; the needle was introduced into the anterior chamber through the cornea, taking care not to damage the tissues. Two hours after the ® first paracentesis, the animals were sacrificed with 0.4 ml Tanax® (Intervet International B.V.) and the second paracentesis was performed. About 100 μl of aqueous humor were removed at the second paracentesis. Aqueous humor was immediately split in four aliquots and stored at −80° C. until analysis. Then both eyes were enucleated and the iris-ciliary body was carefully excised, placed in polypropylene tubes, and stored at −80° C. until analysis.
For the quantitative determination of PGE2 in the aqueous humor we used the PGE2 Immunoassay kit (R&D Systems; Cat. No. KGE004; Lot. No. 240010). Eleven microliters or 16 μl of aqueous humor were diluted to 110 μl or 160 μl with the calibrator diluent solution provided with the kit. One hundred microliters of samples and of standards were load into a 96-well plate and recorded in a plate layout. Samples were treated following the assay procedure described in the kit. A microplate reader (GDV, Italy; model DV 990 B/V6) set at 450 nm (wavelength correction at 540 nm) was used for making the calibration and analyzing the samples.
Pupillary diameter, PGE2, protein, PMN, and MPO were expressed as mean±SEM. Statistical analysis was performed using one way ANOVA followed by a Newman-Keuls post hoc test. Clinical score was expressed as % of eyes and the statistical analysis was performed using Kruskal-Wallis followed by a Dunn post hoc test. P<0.05 was considered statistically significant in both cases. Prism 4 software (GraphPad Software, Inc.) was used for the analysis and graphs.

| SMILES | Cell viability (chemical reduction of resazurin) compared to vehicle controls (monkey TM cells) | EC50 (myocilin mRNA) | PGE2 in aqueous humor, Mean ([1]; 0.1% topical formulation) | PGE2 in aqueous humor ([1]; 0.1% topical formulation, listed as Dex) | Maximal efficacy for myocilin mRNA expression, relative to DEX (myocilin mRNA; 300 nM, monkey TM cells) | Myocilin mRNA abundance compared with DEX (myocilin mRNA; all doses, monkey TM cells) | PGE2 in aqueous humor, statistical significance versus CTR ([1]; 0.1% topical formulation) | PGE2 in aqueous humor ([1]; 0.1% topical formulation, listed as BOL) | PGE2 in aqueous humor, statistical significance versus CTR ([1]; 0.5% topical formulation) | PGE2 in aqueous humor, Mean ([1]; 0.5% topical formulation) | PGE2 in aqueous humor ([1]; 0.5% topical formulation, listed as BOL) | PGE2 in aqueous humor, Mean ([1]; 1% topical formulation) | PGE2 in aqueous humor ([1]; 1% topical formulation, listed as BOL) |
| --- | --- | --- | --- | --- | --- | --- | --- | --- | --- | --- | --- | --- | --- |
| C[C@@H]1C[C@H]2[C@@H]3CCC4=CC(=O)C=C[C@]4(C)[C@@]3(F)[C@@H](O)C[C@]2(C)[C@@]1(O)C(=O)CO [dexamethasone, reference compound] | nor did any drug treatments result in a loss of cell viability | 14.7 ± 1.27 nM | 2.263 ng/mL | 2.51 ng/ml and 2.32 ng/ml (2×) and 2.10 ng/ml and 3.03 ng/ml and 1.30 ng/ml | – | – | – | – | – | – | – | – | – |
| Cc1ccc2c(NCC(O)(CC(C)(C)c3cc(F)cc4c3OCC4)C(F)(F)F)cccc2n1 (stereo not shown) [BOL-303242-X] | nor did any drug treatments result in a loss of cell viability | 20.8 ± 2.74 nM | 1.452 ng/mL | – | approximately 67% | significantly lower mRNA abundance values | statistically significant versus CTR | 1.62 ng/mL and 1.88 ng/mL and 2.15 ng/mL and 0.70 ng/mL and 1.34 ng/mL and 1.03 ng/mL | statistically significant versus CTR | 1.384 ng/mL | 2.31 ng/mL and 2.59 ng/mL and 0.53 ng/mL and 0.75 ng/mL and 0.80 ng/mL and 1.62 ng/mL and 1.09 ng/mL | 2.168 ng/mL | 0.50 ng/mL and 1.87 ng/mL and 1.71 ng/mL and 4.04 ng/mL and 1.11 ng/mL and 3.78 ng/mL |
